Test results: ChEMBL document CHEMBL1201862, “PubChem BioAssay data set” (2004)
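How tested: cells in 96-well plates exposed to compound for 48 hours at five concentrations. Here, GI50 denotes the concentration required for 50% inhibition of growth.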 Calls of active or inactive are those of the source. Cut-off read from the data, not from the text of the source: active = GI50 up to about 1.1 µM and inactive = higher.

Assays:
Assay in all cases: NCI anticancer screen, dose series, 48 h
[1] = system: 786-0
[2] = system: A498
[3] = system: A549
[4] = system: ACHN
[5] = system: BT-549
[6] = system: CAKI-1
[7] = system: CCRF-CEM
[8] = system: COLO 205
[9] = system: DU-145
[10] = system: EKVX
[11] = system: HCC 2998
[12] = system: HCT-116
[13] = system: HCT-15
[14] = system: HL-60
[15] = system: HOP-62
[16] = system: HOP-92
[17] = system: HT-29
[18] = system: Hs-578T
[19] = system: IGROV-1
[20] = system: K562
[21] = system: KM12
[22] = system: LOX IMVI
[23] = system: M14
[24] = system: MCF7
[25] = system: MDA-MB-231
[26] = system: MDA-MB-435
[27] = system: MDA-N
[28] = system: MOLT-4
[29] = system: Malme-3M
[30] = system: NCI-H226
[31] = system: NCI-H23
[32] = system: NCI-H460
[33] = system: NCI-H522
[34] = system: NCI/ADR-RES
[35] = system: OVCAR-3
[36] = system: OVCAR-4
[37] = system: OVCAR-5
[38] = system: OVCAR-8
[39] = system: PC-3
[40] = system: RPMI-8226
[41] = system: RXF 393
[42] = system: SF-268
[43] = system: SF-295
[44] = system: SF-539
[45] = system: SK-MEL-28
[46] = system: SK-MEL-2
[47] = system: SK-MEL-5
[48] = system: SK-OV-3
[49] = system: SN12C
[50] = system: SNB-19
[51] = system: SNB-75
[52] = system: SR
[53] = system: SW-620
[54] = system: T47D
[55] = system: TK-10
[56] = system: U-251
[57] = system: UACC-257
[58] = system: UACC-62
[59] = system: UO-31

C=C1C(=O)C2=CC1CCC(=O)C1(C)CCC(OC(C)=O)C(C)(C)C1CC2O (stereo not drawn)
GI50 [1]: 3.01 µM (inactive) | GI50 [2]: 3.18 µM (inactive) | GI50 [3]: 4.38 µM (inactive) | GI50 [4]: 1.12 µM (inactive) | GI50 [5]: 3.08 µM (inactive) | GI50 [6]: 1.76 µM (inactive) | GI50 [7]: 0.392 µM (active) | GI50 [8]: 0.771 µM (active) | GI50 [9]: 3.03 µM (inactive) | GI50 [10]: 3.91 µM (inactive) | GI50 [11]: 1.95 µM (inactive) | GI50 [12]: 1.6 µM (inactive) | GI50 [13]: 0.552 µM | GI50 [14]: 0.288 µM (active) | GI50 [15]: 8.45 µM (inactive) | GI50 [16]: 4.22 µM (inactive) | GI50 [17]: 1.35 µM (inactive) | GI50 [18]: 3.58 µM (inactive) | GI50 [19]: 3.03 µM (inactive) | GI50 [20]: 0.352 µM (active) | GI50 [21]: 3.31 µM (inactive) | GI50 [22]: 1.14 µM (inactive) | GI50 [23]: 2.64 µM (inactive) | GI50 [24]: 0.798 µM (active) | GI50 [25]: 4.65 µM (inactive) | GI50 [26]: 3.24 µM (inactive) | GI50 [27]: 1.4 µM (inactive) | GI50 [28]: 0.661 µM (active) | GI50 [29]: 2.37 µM (inactive) | GI50 [30]: 7.76 µM (inactive) | GI50 [31]: 2.64 µM (inactive) | GI50 [32]: 1.63 µM (inactive) | GI50 [33]: 0.522 µM (active) | GI50 [34]: 4.11 µM (inactive) | GI50 [35]: 3.73 µM (inactive) | GI50 [36]: 2.17 µM (inactive) | GI50 [37]: 5.32 µM (inactive) | GI50 [38]: 3.81 µM (inactive) | GI50 [39]: 7.19 µM (inactive) | GI50 [40]: 2.53 µM (inactive) | GI50 [41]: 2.23 µM (inactive) | GI50 [42]: 3.4 µM (inactive) | GI50 [43]: 9.31 µM (inactive) | GI50 [44]: 2.1 µM (inactive) | GI50 [45]: 3.66 µM (inactive) | GI50 [46]: 5 µM (inactive) | GI50 [47]: 1.82 µM (inactive) | GI50 [48]: 8.95 µM (inactive) | GI50 [49]: 2.53 µM (inactive) | GI50 [50]: 3.58 µM (inactive) | GI50 [51]: 8.32 µM (inactive) | GI50 [52]: 0.347 µM (active) | GI50 [53]: 2.42 µM (inactive) | GI50 [54]: 3.74 µM (inactive) | GI50 [55]: 5.86 µM (inactive) | GI50 [56]: 2.93 µM (inactive) | GI50 [57]: 3.73 µM (inactive) | GI50 [58]: 2.27 µM (inactive) | GI50 [59]: 2.06 µM (inactive)

Cc1ccc(NC(c2ccccc2)c2ccc3cccnc3c2O)cc1 (stereo not drawn)
GI50 [1]: 3.61 µM (inactive) | GI50 [2]: 12.2 µM (inactive) | GI50 [3]: 5.56 µM (inactive) | GI50 [4]: 3.67 µM (inactive) | GI50 [5]: 4.33 µM (inactive) | GI50 [6]: 5.11 µM (inactive) | GI50 [7]: 0.787 µM (active) | GI50 [8]: 4.68 µM (inactive) | GI50 [9]: 11.1 µM (inactive) | GI50 [10]: 3.47 µM (inactive) | GI50 [11]: 16.4 µM (inactive) | GI50 [12]: 3.23 µM (inactive) | GI50 [13]: 2.64 µM | GI50 [14]: 2.04 µM (inactive) | GI50 [15]: 4.97 µM (inactive) | GI50 [16]: 3.48 µM (inactive) | GI50 [17]: 2.9 µM (inactive) | GI50 [18]: 9.02 µM (inactive) | GI50 [19]: 4.09 µM (inactive) | GI50 [20]: 3.02 µM (inactive) | GI50 [21]: 5.02 µM (inactive) | GI50 [22]: 3.6 µM (inactive) | GI50 [23]: 4.69 µM (inactive) | GI50 [24]: 3.14 µM (inactive) | GI50 [25]: 4.55 µM (inactive) | GI50 [26]: 5.87 µM (inactive) | GI50 [27]: 4.1 µM (inactive) | GI50 [28]: 2.37 µM (inactive) | GI50 [29]: 3.05 µM (inactive) | GI50 [30]: 2.7 µM (inactive) | GI50 [31]: 5.79 µM (inactive) | GI50 [32]: 2.58 µM (inactive) | GI50 [33]: 2.17 µM (inactive) | GI50 [34]: 2.79 µM (inactive) | GI50 [35]: 2.59 µM (inactive) | GI50 [36]: 3.85 µM (inactive) | GI50 [37]: 7.11 µM (inactive) | GI50 [38]: 2.64 µM (inactive) | GI50 [39]: 3.66 µM (inactive) | GI50 [40]: 2.61 µM (inactive) | GI50 [41]: 4.4 µM (inactive) | GI50 [42]: 2.24 µM (inactive) | GI50 [43]: 3.72 µM (inactive) | GI50 [44]: 2.33 µM (inactive) | GI50 [45]: 9.29 µM (inactive) | GI50 [46]: 7.5 µM (inactive) | GI50 [47]: 3.97 µM (inactive) | GI50 [48]: 7.91 µM (inactive) | GI50 [49]: 4.63 µM (inactive) | GI50 [50]: 6.37 µM (inactive) | GI50 [51]: 6.37 µM (inactive) | GI50 [52]: 2.44 µM (inactive) | GI50 [53]: 6.34 µM (inactive) | GI50 [54]: 7.23 µM (inactive) | GI50 [55]: 5.22 µM (inactive) | GI50 [56]: 2.82 µM (inactive) | GI50 [57]: 9.79 µM (inactive) | GI50 [58]: 3.84 µM (inactive) | GI50 [59]: 3.33 µM (inactive)
